According to patent US20240059729A1, “MULTIFUNCTIONAL CYCLIC DINUCLEOTIDE AND USE THEREOF” (TYLIGAND BIOSCIENCE (SHANGHAI) LIMITED, priority 2020, published 2024):
Where a name gives a salt, the structure may show the parent alone.

Key:
CT26 cells = experiment: Anti-tumor activity in transplantation tumor model of CT26 nude mouse; assay type: in vivo, BALB/c nude mice; conditions: for Tumor growth inhibition rate in T cell immunodeficient nude mice: Day 9 post-dosing, 50 μg/mouse (2.5 mg/kg) intratumorally, Day 0 and Day 4; for Tumor growth inhibition in immuno-competent mice versus nude mice (in words): FIG. 2D
Experimental: BALB/c nude mice of 6-8 weeks (purchased from Shanghai Ling Chang Biotech Co., Ltd.) were inoculated with 5×10^5 CT26 cells (supplied by Taicang Zexin Biotechnology Co., Ltd., ATCC #CRL-2638) subcutaneously on the right back dorsal, respectively, and the inoculation volume was 0.1 mL. When tumors grew to an average volume of 100 mm^3, they were randomized according to tumor size and mouse body weight and dosed. The day of the first dose was Day 0. Two doses were administered on Day 0 and Day 4, with 50 μg of compound/mouse (i.e., 2.5 mg/kg) injected intratumorally right side, with the same volume of PBS (Hyclone, Cat #SH30258.01) as a control. The control mice were sacrificed 9 days, the ADU-S100 treated mice were sacrificed 14 days, and Example 10 treated mice were sacrificed 16 days, after dosing, respectively. During the experiment, tumor volumes and the body weights were measured 3 times per week, and the tumor volume was calculated as V=D×d×d/2 (Ibid).

[1] = test system: IFN-β secretion by THP-1 cells; experiment: Activation of IFN-β secretion by THP-1 cells (Human IFN-beta ELISA); assay type: cell-based; conditions: for EC50 / Activating effect on IFN-β secretion / STING agonist activity (in words): THP-1 cells; for EC50: 24 hours, IFN-β ELISA; for Activating effect on IFN-β secretion / STING agonist activity (in words): EC50 compared with 2′,3′-cGAMP and ADU-S100; for Highest concentration of IFN-β secreted by stimulated THP-1 cells: compared with ADU-S100
Experimental: THP-1 cell, a human monocytic leukemia cell line, has the STING phenotype of HAQ type, i.e., R71H-G230A-R293Q. This assay used the Human IFN-beta DuoSet ELISA Kit from R & D (R & D, Cat #DY814-05) and the DuoSet ELISA Ancillary Reagent Kit 2 (R & D, Cat #DY008) to evaluate the activation of IFN-β secretion from THP-1 cells by representative compounds of the invention.
In thawing the THP-1 cells (ATCC #TIB-202), a cell freezing tube was quickly shaken in a water bath at 37° C. to thaw the cells within 1 min. The thawed cell suspension was taken and evenly mixed with an RPMI1640 medium (Hyclone, product #SH30027.01) containing 10% FBS (Life Technology, Cat #10099-141), centrifuged for 5 min at 1000 rpm, and the supernatant was discarded. The cell pellet was resuspended in 5 mL of the complete medium (RPMI 1640 medium containing 10% FBS), placed into a cell culture flask with a bottom area of 25 cm^2, and incubated in a cell incubator at 37° C., 5% CO2 and 95% humidity. When the cell confluence reached about 80%, the cells were passaged. All the cells in the culture flask were transferred to a 15 mL centrifuge tube, centrifuged for 5 min at 1000 rpm, and the supernatant was discarded. 5 mL of fresh complete medium was added to re-suspend the cell pellet, 1 mL of which was taken to place in a cell culture flask with a bottom area of 25 cm^2, supplemented with 4 mL of fresh complete medium for further incubation. When the cell confluence reached about 80% again, plating was conducted following the procedure of cell passage, retaining 1/5 cell suspension for further inculation and remaining 4/5 of the cell suspension in a 15 mL centrifuge tube. The cell suspension was centrifuged to discard the old culture medium, washed once using RPMI1640 culture medium (serum-free), and centrifuged to remove the supernatant. The cells were then re-suspended in RPMI1640 culture medium (serum-free). Cell viability was then detected by Trypan blue exclusion test and to be used for plating when the cell viability was confirmed to be more than 95%. A cell suspension with a density of 1.1×10^6 viable cells/mL was prepared using RPMI1640 culture medium (serum-free), and 180 μL of the cell suspension was added to a 96-well cell culture plate (NUNC Company, Cat #167008) so that the cell density in the plate was 2×10^5 viable cells/well.
A 10 mM stock solution of the compounds in DMSO was first serially diluted at 3.16-fold with DMSO (Sigma, Cat #D2650) to the 5th concentration, and the 6th concentration was set as DMSO control (compound-free). Then, the DMSO solutions containing different concentrations of the compounds were diluted at 10-fold with PBS so that the DMSO content in each compound solution of various concentrations was 10%. Finally, 20 μL of each of such solutions was added into corresponding cell culture plate to provide an initial compound concentration of 100 μM, with the dilution fold of adjacent concentrations being 3.16 and the DMSO content in the cell culture plate being 1%. The cell plate was placed in a cell incubator for further 24 hours.
ELISA detection was conducted referring to the instructions from R & D System, Cat #DY814-05.
ELISA plate coating: PBS (R & D System Cat #DY006) was used to dilute the capture antibody (mouse anti-human IFN-β capture antibody PART #844508) to provide the working concentration, and 100 μL capture antibody working solution was added to a 96-well ELISA plate which was then sealed and incubated overnight at room temperature. Upon discarding the capture antibody working solution, the cell plate was washed 3 times with a washing buffer (0.05% Tween-20 in PBS, pH 7.2-7.4, R & D System Cat #WA126) at 400 μL of the washing buffer per well, and the washing buffer was thoroughly removed after each washing, with the final washing to be completely removed of the wash buffer by inverting and claping the plate to a clean piece of paper. […]

Compound | Tumor growth inhibition rate in T cell immunodeficient nude mice (CT26 cells) [%] | Tumor growth inhibition in immuno-competent mice versus nude mice (in words) (CT26 cells) | EC50 [1] [µM] | EC50 ([1]; Homo sapiens, THP-1, 24 h) [µM] | Activating effect on IFN-β secretion / STING agonist activity (in words) [1] | Highest concentration of IFN-β secreted by stimulated THP-1 cells [1]
Nc1ncnc2c1ncn2[C@@H]1O[C@@H]2COP(=O)([S-])O[C@@H]3[C@H](O)[C@@H](COP([O-])(=S)O[C@H]2[C@H]1O)O[C@H]3n1cnc2c(N)ncnc21.[Na+].[Na+] (some centres unmarked) [ADU-S100, reference compound] | 61.4 | better tumor growth inhibition in immuno-competent mice than in nude mice | 1 to 10 | – | – | –
Nc1nc2c(ncn2[C@@H]2O[C@@H]3CO[P@@](=O)(S)OC4C(F)[C@H](n5cnc6c(N)nc(Cl)nc65)O[C@@H]4CO[P@@](=O)(S)OC2C3O)c(=O)[nH]1 (stereo partly drawn) [Example 10, (2′,3′)-cyclo-(Rp,Rp)-[2′-O-phosphorothioate-diester-guanosine]-[3′-O-phosphorothioate-diester-2-chloro-2′-deoxy-2′-fluoro-beta-adenosine] diammonium salt] | 94.4 | better tumor growth inhibition in immuno-competent mice than in nude mice | – | 1 to 10 | significant STING agonist activity | higher than that of ADU-S100
Nc1nc2c(ncn2[C@@H]2O[C@@H]3CO[P@@](=O)(S)OC4C(F)[C@H](n5cnc6c(N)nc(Cl)nc65)O[C@@H]4CO[P@@](=O)(S)OC3C2O)c(=O)[nH]1 (some centres unmarked) [Example 17, diammonium salt] | – | – | – | 1 to 10 | significant STING agonist activity | higher than that of ADU-S100
